The text below walks through data of patent US4709032A, “Isoquinolinesulfonamide derivatives” (Asahi Kasei Kogyo Kabushiki Kaisha, priority 1982, dated 1987).

The subject of series [1] is mesenteric artery. The series is described as follows: Relaxation of rabbit mesenteric artery contracted with KCl (isolated helical strip). Format: cell-based. Particulars: Oryctolagus cuniculus; concentration for 50% relaxation (complete relaxation = 100%); KCl 15-20 mM contraction; read-out: Relaxation of Mesenteric Artery ED50. As to the method:
When, for example, N-(2-guanidinoethyl)-5-isoquinolinesulfonamide, i.e., compound (2) was added and a complete relaxation was designated 100%, the concentration which could bring about a relaxation of 50%, i.e., ED50 was 1 μM.
After a home bred rabbit of a Japanese species weighing about 3 Kg was subjected to bloodletting, resulting in death and then to abdominal incision, the mesenteric artery was taken out, cut into helicoids of 2 mm×25 mm and suspended in a 20 ml organ bath filled with a Krebs-Henseleit solution into which a mixed gas of 95% by volume of O2 and 5% by volume of CO2 was introduced and one end of the artery was connected with an isometric transducer. When a load of 1.5 g was applied to the artery, the contraction and the relaxation of the artery were recorded as a weight on the transducer (a product of Nippon Koden K.K., Japan, "FD Pickup TB-912T"). The relaxation of the mesenteric artery was observed by adding the isoquinolinesulfonamide derivatives and their pharmaceutically acceptable acid addition salts of this invention to the mesenteric artery at the condition of about one half of the maximum contraction with KCl concentration of 15-20 mM. When the complete relaxation of the mesenteric artery was designated 100%, the concentration of the isoquinolinesulfonamide derivatives and their pharmaceutically acceptable acid addition salts which brought about a relaxation of 50% is shown in Table 26.

Series [2] has as its system vertebral artery. In words: Effect on blood flow volume in vertebral artery of anesthetized dogs. It is filed as in vivo, dog of mixed breed. Conditions: intravenous. As to the method:
(§1) The effect of the isoquinolinesulfonamide derivatives and the pharmaceutically acceptable acid addition salts of this invention on the vasodilatation of the femoral and vertebral arteries can be measured by anesthetizing a dog of mixed breed weighing 8 to 15 Kg by an intravenous administration of 35 mg/Kg of pentbarbital, providing an acute type probe (a product of Nippon Koden K.K., Japan) with the femoral and vertebral arteries, administering the isoquinolinesulfonamide derivatives and the pharmaceutically acceptable acid addition salts to the femoral vein through a polyethylene tube inserted into the femoral vein side chain and measuring the blood flow volume with an electromagnetic flowmeter (a product of Nippon Koden K.K., Japan, "MFV-1200"). 1 mg/Kg of N-(2-guanidinoethyl)-5-isoquinolinesulfonamide, i.e., Compound (2) was intravenously administered, the increased blood flow volumes in the vertebral artery and in the femoral artery were 95% and 37%. And the duration time is more than 30 minutes.
(§2) The effect on the vasodilatation of the femoral and vertebral arteries was measured by anesthetizing a dog of mixed breed weighing 8 to 15 Kg by an intravenous administration of 35 mg/Kg of pentbarbital, providing an acute type probe (a product of Nippon Koden K.K., Japan) with the femoral and vertebral arteries, administering to the femoral vein through a polyethylene tube inserted into the femoral vein side chain, measuring the blood flow volume with an electromagnetic blood flowmeter (a product of Nippon Koden K.K., Japan, "MFV-1200") and measuring the change of blood pressure.

Series [3] deals with femoral and vertebral arteries. The series is described as follows: Duration time of effect in anesthetized dogs (blood flow volume / blood pressure). It is filed as in vivo, dog of mixed breed. Particulars: intravenous. As to the method: as §1, §2
Series [4] relates to femoral artery. In words: Effect on blood flow volume in femoral artery of anesthetized dogs. Particulars: intravenous. Format: in vivo, dog of mixed breed. As to the method: as §1, §2
A short description of series [5]: Hypotensive action (change of blood pressure) in anesthetized dogs. Particulars: intravenous. Format: in vivo, dog of mixed breed. As to the method:
as §2

Series [6] can be described thus: Acute toxicity in mice. Conditions: mouse, in vivo; intravenous administration, male ddY-strain mice; hydrochloric acid salt. As to the method:
The acute toxicity of the N-(2-guanidinoethyl)-5-isoquinolinesulfonamide dihydrochloride was measured by giving male ddY-strain mouse and rat an intravenous administration and an oral administration.
The acute toxicity of the hydrochloric acid salt of other compounds was measured by giving male ddY-strain mice an intravenous administration.

`CCC(CNC(=N)N)NS(=O)(=O)c1cccc2cnccc12` (centres unmarked) [Compound 10, N-[(1-Guanidinomethyl)propyl]-5-isoquinolinesulfonamide]: the EC50 in series [1] was found to be 5 µM.
Consider `O=S(=O)(NCCNC1=NCCCN1)c1cccc2cnccc12` [Compound 51, 2-[2-(5-Isoquinolinesulfonamido)ethylamino]-1,4,5,6-tetrahydropyrimidine], for which the EC50 in series [1] stood at 25 µM.
As to `N=C(N)NC(CNS(=O)(=O)c1cccc2cnccc12)c1ccccc1` (centres unmarked) [Compound 25, N-(2-Guanidino-2-phenylethyl)-5-isoquinolinesulfonamide], the EC50 in series [1] came out at 10 µM.
For `CCN=C(N)NCCNS(=O)(=O)c1cccc2cnccc12` [Compound 55, N-[2,(3-Ethylguanidino)ethyl]-5-isoquinolinesulfonamide], the EC50 in series [1] stood at 5 µM.
Turning to `N=C(N)NCC(CNS(=O)(=O)c1cccc2cnccc12)Cc1ccccc1` (centres unmarked) [Compound 34, N-(3-Guanidino-2-benzylpropyl)-5-Isoquinolinesulfonamide], the EC50 in series [1] was 2 µM.
On the same count and under the same terms, the figure for `CNC(=N)NCCNS(=O)(=O)c1cccc2cnccc12` [Compound 52, N-[2-(3-Methylguanidino)ethyl]-5-isoquinolinesulfonamide] is 7 µM; for `N=C(N)NCCCCNS(=O)(=O)c1cccc2cnccc12` [Compound 4, N-(4-Guanidinobutyl)-5-isoquinolinesulfonamide] it is 2 µM; for `N=C(N)NCCCCCNS(=O)(=O)c1cccc2cnccc12` [Compound 5, N-(5-Guanidinopentyl)-5-isoquinolinesulfonamide] it is 3 µM.
As for `N=C(N)NCC(NS(=O)(=O)c1cccc2cnccc12)c1ccccc1` (centres unmarked) [Compound 23, N-(2-Guanidino-1-phenylethyl)-5-isoquinolinesulfonamide], the EC50 in series [1] worked out at 8 µM.
Same read-out and setting: under `CC(C)C(CNS(=O)(=O)c1cccc2cnccc12)NC(=N)N` (centres unmarked) [Compound 19, N-(2-Guanidino-3-methylbutyl)-5-isoquinolinesulfonamide] stands 15 µM.
For the molecule `N=C(N)NCCCC(CNS(=O)(=O)c1cccc2cnccc12)Cc1ccccc1` (centres unmarked) [Compound 39, N-(5-Guanidino-2-benzylpentyl)-5-isoquinolinesulfonamide], the EC50 in series [1] worked out at 13 µM.
Regarding `N=C(N)N1CCCN(S(=O)(=O)c2cccc3cnccc23)CC1` [Compound 45, 4-Amidino-1-(5-isoquinolinesulfonyl)homopiperazine], in series [1], the EC50 amounted to 2 µM.
In the case of `CCC(CNS(=O)(=O)c1cccc2cnccc12)NC(=N)N` (centres unmarked) [Compound 17, N-(2-Guanidinobutyl)-5-isoquinolinesulfonamide], the EC50 in series [1] came to 10 µM.
In the case of `N=C(N)NCC(CCCNS(=O)(=O)c1cccc2cnccc12)Cc1ccccc1` (centres unmarked) [Compound 38, N-(5-Guanidino-4-benzylpentyl)-5-isoquinolinesulfonamide], the EC50 in series [1] was 11 µM.
Regarding `CC(NC(=N)N)C(C)NS(=O)(=O)c1cccc2cnccc12` (centres unmarked) [Compound 41, N-(2-Guanidino-1-methylpropyl)-5-isoquinolinesulfonamide], the EC50 in series [1] amounted to 8 µM.
Take `N=C(N)NC(CCNS(=O)(=O)c1cccc2cnccc12)Cc1ccccc1` (centres unmarked) [Compound 35, N-(3-Guanidino-4-phenylbutyl)-5-isoquinolinesulfonamide]: in series [1], the EC50 came out at 5 µM.
`CCN=C(NCC)NCCNS(=O)(=O)c1cccc2cnccc12` [Compound 54, N-[2-(2,3-Diethylguanidino)ethyl]-5-isoquinolinesulfonamide]: the EC50 in series [1] is 12 µM.
With `N=C(N)N1CCN(S(=O)(=O)c2cccc3cnccc23)CC1` [Compound 44, 4-Amidino-1-(5-isoquinolinesulfonyl)piperazine], the “Increased Blood Flow Volume in Vertebral Artery” value in series [2] (0.5 (mm/Kg [sic])) was determined as 60%. In addition, the “Duration Time” value in series [3] (0.5 (mm/Kg [sic])) is above 30 min. Also, in series [4] (0.5 (mm/Kg [sic])), the “Increased Blood Flow Volume in Femoral Artery” value is reported as 29%. Moreover, the “Average Decreased Blood Pressure” value in series [5] (0.5 (mm/Kg [sic])) stood at 50 mmHg. For the same molecule, the EC50 in series [1] was 0.6 µM. Moreover, the 50% lethal dose (LD50) (commonly the dose at which mortality reaches 50%) in series [6] came to 12 mg/kg.
Regarding `CCCCC(CNC(=N)N)NS(=O)(=O)c1cccc2cnccc12` (centres unmarked) [Compound 13, N-[(1-Guanidinomethyl)pentyl]-5-isoquinolinesulfonamide], the EC50 in series [1] was determined as 13 µM.
The same measure, in the same setting: under `CC(CCNS(=O)(=O)c1cccc2cnccc12)CNC(=N)N` (centres unmarked) [Compound 36, N-(4-Guanidino-3-methylbutyl)-5-isoquinolinesulfonamide] stands 5 µM; under `N=C(N)NCCCCCCCCCCNS(=O)(=O)c1cccc2cnccc12` [Compound 8, N-(10-Guanidinodecyl)-5-isoquinolinesulfonamide], 15 µM.
Same read-out and setting: under `CC(CNC(=N)N)NS(=O)(=O)c1cccc2cnccc12` (centres unmarked) [Compound 9, N-[(2-Guanidino-1-methyl)ethyl]-5-isoquinolinesulfonamide] stands 3 µM; under `CC(CNC(=N)N)CNS(=O)(=O)c1cccc2cnccc12` (centres unmarked) [Compound 28, N-(3-Guanidino-2-methylpropyl)-5-isoquinolinesulfonamide], 3 µM.
Take `N=C(N)NCCNS(=O)(=O)c1cccc2cnccc12` [Compound 2, N-(2-Guanidinoethyl)-5-isoquinolinesulfonamide]: in series [2] (1 mg/Kg (mm/Kg [sic])), the “Increased Blood Flow Volume in Vertebral Artery” value is reported as 95%. Further, the “Duration Time” value in series [3] (1 mg/Kg (table prints mm/Kg), 1 mg/kg) is above 30 min; in series [3] (1 mg/Kg (table prints mm/Kg), listed as Compound (2), 1 mg/kg), “more than 30 Min”. Also, in series [4] (1 mg/Kg (mm/Kg [sic])), the “Increased Blood Flow Volume in Femoral Artery” value came out at 37%. Moreover, the “Average Decreased Blood Pressure” value in series [5] (1 (mm/Kg [sic])) was 32 mmHg. The EC50 in series [1] amounted to 1 µM.
Consider `N=C(N)NCC(CCNS(=O)(=O)c1cccc2cnccc12)c1ccccc1` (centres unmarked) [Compound 37, N-(4-Guanidino-3-phenylbutyl)-5-isoquinolinesulfonamide], for which the EC50 in series [1] was 10 µM.
As to `CC1CN(S(=O)(=O)c2cccc3cnccc23)C(C)CN1C(=N)N` (centres unmarked) [Compound 49, 4-Amidino-2,5-dimethyl-1-(5-isoquinolinesulfonyl)piperazine], the EC50 in series [1] is 1 µM.
Regarding `N=C(N)NCC(Cc1ccccc1)NS(=O)(=O)c1cccc2cnccc12` (centres unmarked) [Compound 24, N-(2-Guanidino-1-benzylethyl)-5-isoquinolinesulfonamide], the EC50 in series [1] was 10 µM.
As for `CC(CNS(=O)(=O)c1cccc2cnccc12)NC(=N)N` (centres unmarked) [Compound 16, N-(2-Guanidinopropyl)-5-isoquinolinesulfonamide], the EC50 in series [1] is 3 µM.
For `CN=C(NC)NCCNS(=O)(=O)c1cccc2cnccc12` [Compound 53, N-[2-(2,3-Dimethylguanidino)ethyl]-5-isoquinolinesulfonamide], the EC50 in series [1] was found to be 10 µM.
On the same count and under the same terms, the figure for `N=C(N)NCCCCCCNS(=O)(=O)c1cccc2cnccc12` [Compound 6, N-(6-Guanidinohexyl)-5-isoquinolinesulfonamide] is 4 µM; for `N=C(N)NCCCNS(=O)(=O)c1cccc2cnccc12` [Compound 3, N-(3-Guanidinopropyl)-5-isoquinolinesulfonamide] it is 2 µM.
Regarding `O=S(=O)(NCCNC1=NCCN1)c1cccc2cnccc12` [Compound 50, 2-[2-(5-Isoquinolinesulfonamido)ethylaminol]-2-imidazoline], the “Increased Blood Flow Volume in Vertebral Artery” value in series [2] (1 mg/Kg (mm/Kg [sic])) is 65%. For the same molecule, the “Duration Time” value in series [3] (1 mg/Kg (mm/Kg [sic])) came to 21 min. Further, in series [4] (1 mg/Kg (mm/Kg [sic])), the “Increased Blood Flow Volume in Femoral Artery” value is on record as 19%. The “Average Decreased Blood Pressure” value in series [5] (1 (mm/Kg [sic])) is given as 10 mmHg. Further, in series [1], the EC50 came to 20 µM.
With `N=C(N)NCCCCCCCCNS(=O)(=O)c1cccc2cnccc12` [Compound 7, N-(8-Guanidinooctyl)-5-isoquinolinesulfonamide], the EC50 in series [1] stood at 10 µM.
